Data on four molecules can be found in ChEMBL document CHEMBL1152090, “Engineering of cyclic peptides with novel inhibiting properties to differentiate two serine proteases, chymotrypsin and subtilisin Carlsberg” (Bioorg Med Chem Lett, 1994).

In series [1] the target is T1, Chymotrypsinogen A (Bos taurus, UniProt P00766). Briefly: Compound was tested for the inhibition of chymotrypsin at 120 nM.
In series [2] the target is T1, Chymotrypsinogen A. The series is described as follows: Compound was tested for the inhibition of chymotrypsin at 276 nM.
Series [3] can be described thus: Compound was tested for the inhibition of subtilisin carlsberg at 300 nM.
The nature of series [4]: Compound was tested for the inhibition of subtilisin carlsberg at 690 nM.
In series [5] the target is T1, Chymotrypsinogen A. The series is described as follows: Compound was tested for the inhibition of chymotrypsin at 138 nM.
Series [6] deals with T1, Chymotrypsinogen A. Briefly: Compound was tested for the inhibition of chymotrypsin at 69 nM.
Series [7] can be described thus: Compound was tested for the inhibition of subtilisin carlsberg at 138 nM.
A short description of series [8]: Compound was tested for the inhibition of subtilisin carlsberg at 23 nM.
In series [9] the test system is CC[C@H](C)[C@@H]1NC(=O)[C@@H](CCCN=C(N)N)NC(=O)[C@H](Cc2ccc(O)cc2)NC(=O)[C@@H](CCC(=O)O)NC(=O)[C@H](CCSC)NC(=O)[C@@H]([C@@H](C)O)NC(=O)[C@H](N)CCC(=O)NCCCC[C@H](C(N)=O)NC(=O)[C@@H](C(C)C)NC(=O)[C@H](CCCN=C(N)N)NC(=O)[C@@H](CCC(=O)O)NC1=O. Particulars: 276 nM.
Series [10] has the same test system. Particulars: 120 nM.
Series [11] has the same test system. Particulars: 276 nM. The source holds these as a separate data set.
For series [12] the test system is unchanged. Particulars: 120 nM. This is another data set of the same source.
For series [13], the target named is Chymotrypsinogen A (Bos taurus) (UniProt P00766). Particulars: 120 nM.
For series [14] the target is unchanged. Particulars: 276 nM.

For the molecule `CC[C@H](C)[C@@H]1NC(=O)[C@H](CCCNC(=N)N)NC(=O)[C@H](Cc2ccc(O)cc2)NC(=O)[C@H](CCC(=O)O)NC(=O)[C@H](CCSC)NC(=O)[C@H]([C@@H](C)O)NC(=O)[C@@H](N)CCC(=O)NCCCC[C@@H](C(N)=O)NC(=O)[C@H](C(C)C)NC(=O)[C@H](CCCNC(=N)N)NC(=O)[C@H](CCC(=O)O)NC1=O`, the Ki in series [1] was found to be 668 nM; in series [2], 656 nM; in [3], 775 nM; in series [4] it was 786 nM.

With `CC[C@H](C)[C@@H]1NC(=O)[C@@H](NC(C)=O)CC(=O)/N=C(/N)NCCC[C@@H](C(N)=O)NC(=O)[C@H](Cc2ccc(O)cc2)NC(=O)[C@H](CCC(=O)O)NC(=O)[C@H](CCSC)NC(=O)[C@H]([C@@H](C)O)NC(=O)[C@H](C(C)C)NC1=O`, the Ki in series [5] was 191 nM; in [6], 203 nM; in [7], 116 nM; in [8] it was 128 nM.

On to “Chymotrypsinogen A (Bos taurus) (from UniProt P00766)”, for which the Km in [9] was determined as 298 µM; in series [12], 310 µM. The values for the Vmax in series [10] and in series [11] were 3.89e-07 M⁻¹ s⁻¹ and 3.23e-07 M⁻¹ s⁻¹, respectively.

Regarding `CC[C@H](C)[C@@H]1NC(=O)[C@@H](CCCN=C(N)N)NC(=O)[C@H](Cc2ccc(O)cc2)NC(=O)[C@@H](CCC(=O)O)NC(=O)[C@H](CCSC)NC(=O)[C@@H]([C@@H](C)O)NC(=O)[C@H](N)CCC(=O)NCCCC[C@H](C(N)=O)NC(=O)[C@@H](C(C)C)NC(=O)[C@H](CCCN=C(N)N)NC(=O)[C@@H](CCC(=O)O)NC1=O`, the k cat in series [13] came to 55.1 s⁻¹; in [14], 45.8 s⁻¹.
